Measurements published in US9791456B2, “Method for measuring ATR inhibition mediated increases in DNA damage” (Vertex Pharmaceuticals Incorporated, priority 2012, dated 2017).

Legend:
Format in all cases: cell-based
[1] = system: pChk1^Ser345 and γH2AX in MCF7 cells; test: Evaluation of optimal 4-nitroquinoline concentration in MCF7 cells, immunofluorescence; conditions: 0.1-10 μM 4-nitroquinoline, 2 hours
Procedure: Coverslips were sterilised in methanol and placed in the bottom of a 6-well culture dish. 2×10^5 MCF7 cells were seeded into each well of a 6-well culture dish in culture medium (RPMI-1640 with 10% FBS and 1% penicillin and streptomycin) and allowed to adhere for 24 hours. Medium was replaced by fresh medium containing 4-nitroquinoline (0.1-10 μM) and incubated at 37° C. for 2 hours. Cells were washed in PBS, fixed using 4% (w/v) paraformaldehyde for 20 minutes at room temperature and permeablised using 0.5% (v/v) Triton-X-100 for 30 minutes at room temperature. Permeablised cells were blocked using 10% (v/v) goat serum and 5% (w/v) BSA in PBS for 1 hour, the coverslips removed and subjected to immunofluorescent analysis using primary antibodies diluted in 1% (w/v) BSA in PBS overnight at 4° C.: rabbit anti-pChk1^Ser345 (133D3, Cell Signaling Technology, 1:300) and mouse anti-phospho-Histone H2AX^Ser139 (JBW301, Millipore, 1:1000). These were detected using the appropriate secondary antibodies diluted in 1% (w/v) BSA in PBS for 1 hour at room temperature protected from light: anti-rabbit AlexaFluor 546 (Invitrogen, 1:1000) and anti-mouse AlexaFluor 546 (Invitrogen, 1:1000). […] Mean nuclear fluorescence for at least 50 nuclei was measured using Image) software (National Institutes of Health, USA) and the data analysed using GraphPad Prism software version 6.0.

[2] = system: ATR-dependent phosphorylation events; test: 4-nitroquinoline induction of ATR-dependent phosphorylation events in cell lines and isolated PBMCs
Procedure: PBMCs were purified from fresh whole human blood using FICOLL-PAQUE™ density gradient centrifugation. Cells were counted and seeded at 5×10(5) per well in a round bottom 96 well plate in RPMI medium supplemented with 10% foetal calf serum (FCS) and penicillin/streptomycin/glutamine (PSQ). […] Washed cells were then fixed with 4% paraformaldehyde for 10 min, permeabilised with 0.5% Triton X-100 for 10 min and analysed for Histone H2AX S139 phosphorylation by flow cytometry on the using 1:200 diluted anti-γH2AX primary antibody clone JBW301 (Millipore), 1:500 goat anti-mouse Alexa Fluor488 (Invitrogen) and propidium iodide DNA staining.
Blood from healthy volunteers was collected by venepuncture into EDTA-coated blood collection tubes. […] PBMCs were collected using centrifugation, washed in 1 ml PBS then resuspended in 1 ml PBS before being counted using a haemocytometer. […] These were detected using the appropriate secondary antibodies diluted in 1% (w/v) BSA in PBS for 1 hour at room temperature protected from the light: anti-rabbit AlexaFluor 488 (Invitrogen, 1:1000) and anti-mouse AlexaFluor 546 (Invitrogen, 1:1000). […] Mean nuclear fluorescence for at least 50 nuclei was measured using ImageJ software (National Institutes of Health, USA) and the data analysed using GraphPad Prism software version 6.0. […]

[3] = system: pChk1^Ser345 and γH2AX in PBMCs; test: Evaluation of optimal 4-nitroquinoline concentration in PBMCs from treated human whole blood, immunofluorescence; conditions: 240 μM 4-nitroquinoline, 2 hours
Procedure: Blood from healthy volunteers was collected by venepuncture into EDTA-coated blood collection tubes. 2 mls of blood per treatment was transferred into 1 well of a 6-well plates already containing 2 mls PBS containing 2% (v/v) FBS and DMSO or 4-nitroquinoline (60, 120, 240, 480 μM final concentration). Following 2 hours incubation at 37° C. the blood mixture was transferred into 15 ml falcon tubes containing 2 mls FICOLL-PAQUE PLUS™ and the PBMCs separated using centrifugation through a FICOLL-PAQUE PLUS™ separation gradient. PBMCs were collected and washed twice using 10 mls PBS and resuspended in 1 ml PBS. PBMCs were counted using a haemocytometer and 1×10^5 PBMCs were centrifuged onto microscope slides using a CYTOSPIN 2™ centrifuge (Shandon) for 5 minutes at 450 rpm. Cells were fixed using 4% (w/v) paraformaldehyde for 20 minutes and permeablised using 0.5% (v/v) Triton-X-100 for 30 minutes. […] These were detected using the appropriate secondary antibodies diluted in 1% (w/v) BSA in PBS: anti-rabbit AlexaFluor 546 (Invitrogen, 1:1000) and anti-mouse AlexaFluor 546 (Invitrogen, 1:1000). […] Mean nuclear fluorescence for at least 50 nuclei was measured using Image) software (National Institutes of Health, USA) and the data analysed using GraphPad Prism software version 6.0.

γH2AX in MCF7 cells [4] = test: 4-nitroquinoline induced phosphorylation of H2AX in MCF7 cells over time, immunofluorescence; conditions: Homo sapiens, 2.5 μM 4-nitroquinoline
Procedure: (§1) Coverslips were sterilised in methanol and placed in the bottom of a 6-well culture dish. 2×10^5 MCF7 cells were seeded into each well of a 6-well culture dish in culture medium (RPMI-1640 with 10% FBS and 1% penicillin and streptomycin) and allowed to adhere for 24 hours. […] Cells were incubated at 37° C. for 0.5, 1 and 3 hours at which points they were washed with 2 mls PBS and fixed. Cells were fixed using 4% (w/v) paraformaldehyde for 20 minutes at room temperature and permeablised using 0.5% (v/v) Triton-X-100 for 30 minutes at room temperature. […] These were detected using the appropriate secondary antibodies diluted in 1% (w/v) BSA in PBS for 1 hour at room temperature protected from light: anti-rabbit AlexaFluor 546 (Invitrogen, 1:1000) or anti-mouse AlexaFluor 546 (Invitrogen, 1:1000). Coverslips were washed three times for 10 minutes in PBS after incubation with each antibody. DNA was stained using […] with DAPI (Vector Laboratories). Images were captured using a Zeiss LSM 700 confocal microscope (Zeiss) with Zen 2009 software (Zeiss) using and ×40 lens and wavelengths of 405 nm and 561 nm. Mean nuclear fluorescence for at least 50 nuclei was measured using Image) software (National Institutes of Health, USA) and the data analysed using GraphPad Prism software version 6.0.

ATR [5] = target: T1, ATR (Homo sapiens, UniProt Q13535); test: ATR inhibition in purified PBMCs from human whole blood after DNA damaging agents, immunofluorescence; conditions: UV or 4-nitroquinoline, 10 μM VE-821
T1 construct: PBMCs were purified from fresh whole human blood; endogenous in cells; host or cells: human PBMCs / lymphocytes from fresh whole blood of healthy volunteers
T1 sequence (Q13535 whole entry): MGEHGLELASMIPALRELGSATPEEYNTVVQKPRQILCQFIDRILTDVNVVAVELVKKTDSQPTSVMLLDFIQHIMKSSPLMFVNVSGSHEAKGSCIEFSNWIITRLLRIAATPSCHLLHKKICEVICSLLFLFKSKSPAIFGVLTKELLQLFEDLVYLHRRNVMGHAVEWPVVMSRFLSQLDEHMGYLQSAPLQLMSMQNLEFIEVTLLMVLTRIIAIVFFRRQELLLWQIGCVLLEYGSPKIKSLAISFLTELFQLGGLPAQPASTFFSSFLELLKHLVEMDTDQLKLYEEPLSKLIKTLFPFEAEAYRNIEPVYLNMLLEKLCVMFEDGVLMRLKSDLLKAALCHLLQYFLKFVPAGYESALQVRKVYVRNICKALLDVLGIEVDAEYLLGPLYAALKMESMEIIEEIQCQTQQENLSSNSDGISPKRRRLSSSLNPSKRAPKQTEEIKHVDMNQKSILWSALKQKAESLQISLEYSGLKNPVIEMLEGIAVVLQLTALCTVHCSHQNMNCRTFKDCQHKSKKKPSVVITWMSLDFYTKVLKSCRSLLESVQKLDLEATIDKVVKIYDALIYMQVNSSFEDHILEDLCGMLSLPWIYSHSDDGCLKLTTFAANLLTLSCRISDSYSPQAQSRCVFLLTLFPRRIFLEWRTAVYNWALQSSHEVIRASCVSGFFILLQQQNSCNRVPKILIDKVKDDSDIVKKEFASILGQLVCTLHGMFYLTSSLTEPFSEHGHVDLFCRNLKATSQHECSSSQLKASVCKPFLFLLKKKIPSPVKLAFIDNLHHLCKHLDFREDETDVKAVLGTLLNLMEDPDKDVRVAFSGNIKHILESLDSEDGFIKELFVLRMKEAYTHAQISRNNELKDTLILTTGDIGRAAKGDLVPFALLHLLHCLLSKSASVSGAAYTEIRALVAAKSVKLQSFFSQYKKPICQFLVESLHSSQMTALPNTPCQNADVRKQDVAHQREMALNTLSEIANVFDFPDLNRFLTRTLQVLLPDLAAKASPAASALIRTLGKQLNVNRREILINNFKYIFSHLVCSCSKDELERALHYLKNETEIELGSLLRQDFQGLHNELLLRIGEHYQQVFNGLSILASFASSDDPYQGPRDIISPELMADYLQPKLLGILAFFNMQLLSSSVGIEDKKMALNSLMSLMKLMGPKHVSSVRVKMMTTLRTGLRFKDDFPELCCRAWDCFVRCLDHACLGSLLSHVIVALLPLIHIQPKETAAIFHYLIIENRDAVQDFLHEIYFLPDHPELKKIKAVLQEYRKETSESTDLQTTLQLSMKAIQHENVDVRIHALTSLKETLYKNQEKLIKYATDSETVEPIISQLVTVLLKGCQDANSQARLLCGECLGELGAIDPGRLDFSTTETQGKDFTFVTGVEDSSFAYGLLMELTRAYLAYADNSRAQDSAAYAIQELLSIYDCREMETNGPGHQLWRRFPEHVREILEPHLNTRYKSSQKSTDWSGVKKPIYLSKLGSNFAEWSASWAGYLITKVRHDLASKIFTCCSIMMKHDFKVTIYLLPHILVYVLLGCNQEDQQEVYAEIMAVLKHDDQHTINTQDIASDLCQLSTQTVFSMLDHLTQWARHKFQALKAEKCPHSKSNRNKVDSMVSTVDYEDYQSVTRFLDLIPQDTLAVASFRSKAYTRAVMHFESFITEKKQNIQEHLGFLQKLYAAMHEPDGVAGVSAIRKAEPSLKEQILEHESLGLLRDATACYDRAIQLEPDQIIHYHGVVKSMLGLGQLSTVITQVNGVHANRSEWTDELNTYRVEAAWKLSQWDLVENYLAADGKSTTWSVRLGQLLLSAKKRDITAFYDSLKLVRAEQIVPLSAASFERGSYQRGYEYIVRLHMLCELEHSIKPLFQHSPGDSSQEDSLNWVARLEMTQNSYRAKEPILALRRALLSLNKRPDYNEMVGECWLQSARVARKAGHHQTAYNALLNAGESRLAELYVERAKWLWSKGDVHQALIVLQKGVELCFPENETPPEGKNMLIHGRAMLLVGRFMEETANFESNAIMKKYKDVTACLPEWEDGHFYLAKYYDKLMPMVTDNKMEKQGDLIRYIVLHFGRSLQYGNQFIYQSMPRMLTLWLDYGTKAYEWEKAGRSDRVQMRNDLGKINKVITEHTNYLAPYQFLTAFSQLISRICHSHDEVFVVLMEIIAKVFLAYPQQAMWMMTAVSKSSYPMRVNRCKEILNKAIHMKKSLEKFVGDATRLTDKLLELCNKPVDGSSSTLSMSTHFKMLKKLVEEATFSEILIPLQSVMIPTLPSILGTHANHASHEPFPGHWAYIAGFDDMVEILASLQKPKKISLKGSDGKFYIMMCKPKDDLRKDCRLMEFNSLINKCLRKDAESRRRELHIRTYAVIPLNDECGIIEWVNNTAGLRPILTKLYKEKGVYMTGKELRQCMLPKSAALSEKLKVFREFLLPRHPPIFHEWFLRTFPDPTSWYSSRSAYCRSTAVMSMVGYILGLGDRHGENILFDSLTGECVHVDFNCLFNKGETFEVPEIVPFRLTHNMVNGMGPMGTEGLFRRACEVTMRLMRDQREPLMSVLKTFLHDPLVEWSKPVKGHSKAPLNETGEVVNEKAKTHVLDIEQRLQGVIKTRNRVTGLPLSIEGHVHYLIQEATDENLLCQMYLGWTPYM
T1 sequence (Q8WXE1 whole entry partner): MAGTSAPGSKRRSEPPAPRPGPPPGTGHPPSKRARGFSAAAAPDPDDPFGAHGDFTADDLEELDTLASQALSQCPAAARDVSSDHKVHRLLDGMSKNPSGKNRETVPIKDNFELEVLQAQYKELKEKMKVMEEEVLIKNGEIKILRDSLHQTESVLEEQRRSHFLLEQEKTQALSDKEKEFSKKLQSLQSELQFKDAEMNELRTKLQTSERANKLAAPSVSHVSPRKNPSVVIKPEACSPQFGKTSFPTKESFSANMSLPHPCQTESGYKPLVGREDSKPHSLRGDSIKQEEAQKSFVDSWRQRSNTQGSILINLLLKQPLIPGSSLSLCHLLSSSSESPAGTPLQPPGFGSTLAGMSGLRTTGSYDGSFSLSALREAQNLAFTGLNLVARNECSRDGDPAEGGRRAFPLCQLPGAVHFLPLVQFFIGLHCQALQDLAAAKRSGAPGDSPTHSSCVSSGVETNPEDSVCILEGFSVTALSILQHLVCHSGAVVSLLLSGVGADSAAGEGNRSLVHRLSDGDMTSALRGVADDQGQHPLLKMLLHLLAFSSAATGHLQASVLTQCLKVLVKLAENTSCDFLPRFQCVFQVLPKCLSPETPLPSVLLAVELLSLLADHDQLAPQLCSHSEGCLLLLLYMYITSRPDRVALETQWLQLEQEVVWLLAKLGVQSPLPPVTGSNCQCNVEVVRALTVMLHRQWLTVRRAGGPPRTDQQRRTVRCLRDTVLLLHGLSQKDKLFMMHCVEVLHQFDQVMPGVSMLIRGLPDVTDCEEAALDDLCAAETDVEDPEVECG
Procedure: Blood from healthy volunteers was collected by venepuncture into EDTA-coated blood collection tubes. 2×10 ml aliquots of blood was diluted 1:1 in PBS and transferred into 50 ml falcon tubes containing 10 mls FICOLL-PAQUE PLUS™ (GE Healthcare). PBMCs were separated using centrifugation through a FICOLL-PAQUE PLUS™ separation gradient. PBMCs from each tube were collected separately and washed twice with 20 mls PBS before being pooled and resuspended in 20 mls culture medium (RPMI-1640 with 10% FBS). 2 mls of PBMC suspension per treatment were transferred into one well of a 6-well culture dish. […] PBMCs were collected using centrifugation, washed in 1 ml PBS then resuspended in 1 ml PBS before being counted using a haemocytometer. 1×10^5 PBMCs were centrifuged onto microscope slides using a CYTOSPIN 2™ centrifuge (Shandon) for 5 minutes at 450 rpm. […] These were detected using the appropriate secondary antibodies diluted in 1% (w/v) BSA in PBS for 1 hour at room temperature protected from the light: anti-rabbit AlexaFluor 488 (Invitrogen, 1:1000) and anti-mouse AlexaFluor 546 (Invitrogen, 1:1000). […] Mean nuclear fluorescence for at least 50 nuclei was measured using ImageJ software (National Institutes of Health, USA) and the data analysed using GraphPad Prism software version 6.0.

[6] = system: pChk1^Ser345 in MCF7 cells; test: 4-nitroquinoline induced phosphorylation of Chk1 in MCF7 cells over time, immunofluorescence; conditions: Homo sapiens, 2.5 μM 4-nitroquinoline, 10 μM VE-821, for up to 3 hr
Procedure: as §1

γH2AX in MCF7 cells [7] = test: UV induced phosphorylation of H2AX in MCF7 cells over time, immunofluorescence; conditions: 20 J/m^2 UV
Procedure: (§2) Coverslips were sterilised in methanol and placed in the bottom of a 6-well culture dish. 2×10^5 MCF7 cells were seeded into each well of a 6-well culture dish in culture medium (RPMI-1640 with 10% FBS and 1% penicillin and streptomycin) and allowed to adhere for 24 hours. […] Cells were exposed to 20 J/m^2 UV using a […]-2400' (Stratagene). Cells were incubated at 37° C. for 0.5, 1 and 3 hours at which points they were washed with 2 mls PBS and fixed. Cells were fixed using 4% (w/v) paraformaldehyde for 20 minutes at room temperature and permeablised using 0.5% (v/v) Triton-X-100 for 30 minutes at room temperature. […] These were detected using the appropriate secondary antibodies diluted in 1% (w/v) BSA in PBS for 1 hour at room temperature protected from light: anti-rabbit AlexaFluor 546 (Invitrogen, 1:1000) or anti-mouse AlexaFluor 546 (Invitrogen, 1:1000). Coverslips were washed three times for 10 minutes in PBS after incubation with each antibody. DNA was stained using […] with DAPI (Vector Laboratories). Images were captured using a Zeiss LSM 700 confocal microscope (Zeiss) with Zen 2009 software (Zeiss) using and ×40 lens and wavelengths of 405 nm and 561 nm. Mean nuclear fluorescence for at least 50 nuclei was measured using Image) software (National Institutes of Health, USA) and the data analysed using GraphPad Prism software version 6.0.

ATR [8] = target: T1, ATR; test: ATR inhibition in PBMCs after treatment of human whole blood with UV, immunofluorescence; conditions: 50 J/m^2 UV, 10 μM VE-821
Procedure: Blood from healthy volunteers was collected by venepuncture into EDTA-coated blood collection tubes. […] Following 1 hour incubation at 37° C. and 5% CO2, blood was exposed to 50 J/m^2 UV light. Following 1 hour further incubation the blood mixture was transferred into 15 ml falcon tubes containing 2 mls FICOLL-PAQUE PLUS™ and the PBMCs separated using centrifugation through a FICOLL-PAQUE PLUS™ separation gradient. PBMCs were collected and washed twice using 10 mls PBS and resuspended in 1 ml PBS. PBMCs were counted using a haemocytometer and 1×10^5 PBMCs were centrifuged onto microscope slides using a CYTOSPIN 2™ centrifuge (Shandon) for 5 minutes at 450 rpm. Cells were fixed using 4% (w/v) paraformaldehyde for 20 minutes and permeablised using 0.5% (v/v) Triton-X-100 for 30 minutes. […] These were detected using the appropriate secondary antibodies diluted in 1% (w/v) BSA in PBS for 1 hour at room temperature protected from the light: anti-rabbit AlexaFluor 488 (Invitrogen, 1:1000) and anti-mouse AlexaFluor 546 (Invitrogen, 1:1000). […] Mean nuclear fluorescence for at least 50 nuclei was measured using Image) software (National Institutes of Health, USA) and the data analysed using GraphPad Prism software version 6.0.

[9] = system: pChk1^Ser345 in MCF7 cells; test: UV induced phosphorylation of Chk1 in MCF7 cells over time, immunofluorescence; conditions: 20 J/m^2 UV
Procedure: as §2

ATR [10] = target: T1, ATR; test: ATR inhibition in PBMCs after treatment of human whole blood with 4-nitroquinoline, immunofluorescence; conditions: 240 μM 4-nitroquinoline 1 and 2 hr, 1 or 10 μM compound
Procedure: Blood from healthy volunteers was collected by venepuncture into EDTA-coated blood collection tubes. […] Following 1 or 2 hours incubation (as indicated) at 37° C. the blood mixture was transferred into 15 ml falcon tubes containing 2 mls FICOLL-PAQUE PLUS™ and the PBMCs separated using centrifugation through a FICOLL-PAQUE PLUS™ separation gradient. PBMCs were collected and washed twice using 10 mls PBS and resuspended in 1 ml PBS. PBMCs were counted using a haemocytometer and 1×10^5 PBMCs were centrifuged onto microscope slides using a CYTOSPIN 2™ centrifuge (Shandon) for 5 minutes at 450 rpm. Cells were fixed using 4% (w/v) paraformaldehyde for 20 minutes and permeablised using 0.5% (v/v) Triton-X-100 for 30 minutes. […] These were detected using the appropriate secondary antibodies diluted in 1% (w/v) BSA in PBS: anti-rabbit AlexaFluor 546 (Invitrogen, 1:1000) and anti-mouse AlexaFluor 546 (Invitrogen, 1:1000). […] Mean nuclear fluorescence for at least 50 nuclei was measured using Image) software (National Institutes of Health, USA) and the data analysed using GraphPad Prism software version 6.0.

ATR [11] = target: T2, ATR (Mus musculus, UniProt Q9JKK8); test: ATR inhibition in whole mouse blood ex vivo: 4-nitroquinoline stimulated H2AX phosphorylation in lymphocytes, flow cytometry
T2 construct: Whole human or mouse blood was collected in heparinised tubes; endogenous in cells; host or cells: lymphocytes in whole mouse blood ex vivo
Procedure: The samples were mixed by agitation, incubated for 10 min at 37° C. and stimulated with 62 uM (human) or 124 uM (mouse) 4-nitroquinoline for 1 h at 37° C. The samples were then fixed and red blood cells were lysed using Lyse/Fix Buffer (BD) for 5-10 min and white blood cells were collected by centrifugation according to the manufacturer's instructions. The samples were then transferred into 96 well round bottom plates and permeabilised using Triton X-100 according to method i). H2AX phosphorylation was then analysed by flow cytometry according to method i) with selection of lymphocytes using either standard scatterplot gating or CD3 staining. For specific analysis of H2AX phosphorylation in CD3 positive lymphocytes, cells were stained with 1:2.5 diluted PE-conjugated anti-human CD3 (BD) (human) and 1:50 diluted APC-conjugated anti-mouse CD3 (BD) (mouse) in place of propidium iodide and analyses of P-H2AX were performed on the CD3-positive population.

Compound: O=[N+]([O-])c1ccnc2ccccc12 [4-nitroquinoline]
- concentration required for pChk1^Ser345 and γH2AX induction compared with whole blood [1]: lower concentrations were required
- concentration adequate to induce ATR-dependent phosphorylation events [2]: ≤ 5 µM
- phosphorylation of pChk1^Ser345 and γH2AX (biomarker induction) [3]: improved phosphorylation

Compound: CS(=O)(=O)c1ccc(-c2cnc(N)c(C(=O)Nc3ccccc3)n2)cc1 [VE-821]
- inhibition at 10 µM (γH2AX in MCF7 cells [4]; 10 μM VE-821, at 1 hr): 70%
- inhibition at 10 µM (γH2AX in MCF7 cells [4]; 10 μM VE-821, at 3 hr): 40%
- level of pChk1^Ser345 signal after co-administering compound (ATR [5]): reduction
- level of γH2AX signal after co-administering compound (ATR [5]): reduction
- inhibition at 10 µM [6]: > 70%
- inhibition of γH2AX (γH2AX in MCF7 cells [7]; at 0.5 hr): 80%
- inhibition of γH2AX (γH2AX in MCF7 cells [7]; at 3 hr): < 20%
- inhibition of UV-induced pChk1^Ser345 (ATR [8]): significant inhibition
- inhibition of UV-induced γH2AX (ATR [8]): significant inhibition
- inhibition (of UV-induced Chk1 phosphorylation) ([9]; at 0.5 hr): 70%
- inhibition (of UV-induced Chk1 phosphorylation) ([9]; at 3 hr): 55%

Compound: CNCc1ccc(-c2cc(-c3nc(-c4ccc(S(=O)(=O)C(C)C)cc4)cnc3N)on2)cc1 [VE-822]
- inhibition of 4-nitroquinoline-induced increases in γH2AX (ATR [10]): inhibited by VE-822 in a concentration-dependent manner
- IC50 (ATR [11]): 1000 nM
